Assay results taken from US9637453B2, “3-spirocyclic-6-hydroxamic acid tetralins as HDAC inhibitors” (Forma Therapeutics, Inc., priority 2015, dated 2017).

How the values were obtained:
[1] = molecular target: T1, Full length human recombinant HDAC11 (Homo sapiens, UniProt Q96DB2); test: In vitro histone deacetylase assay, enzymatic HDAC11 (electrophoretic mobility shift assay); assay type: biochemical; settings: 10 nM HDAC11; 2 μM peptide substrate FAM-RHKK(tri-fluor-Ac)—NH2; 25° C.; 12 concentrations; read-out: HDAC11 Activity Range (IC50)
T1 construct: Full length human recombinant HDAC6 and HDAC11 proteins were expressed in baculoviral system
T1 sequence (Q96DB2 1-347): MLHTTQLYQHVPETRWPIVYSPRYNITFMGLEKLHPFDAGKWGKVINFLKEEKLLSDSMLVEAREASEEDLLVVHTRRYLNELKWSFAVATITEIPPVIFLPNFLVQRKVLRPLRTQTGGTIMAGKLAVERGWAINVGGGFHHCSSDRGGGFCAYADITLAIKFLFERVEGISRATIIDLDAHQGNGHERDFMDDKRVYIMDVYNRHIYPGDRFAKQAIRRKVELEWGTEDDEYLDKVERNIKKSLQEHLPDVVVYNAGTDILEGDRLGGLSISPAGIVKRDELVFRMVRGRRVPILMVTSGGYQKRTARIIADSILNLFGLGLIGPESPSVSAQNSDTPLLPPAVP
Method in brief: (§1)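 Baculovirus-expressed full-length enzymes (HDAC6 1 nM, FAM-RHKK(Ac)-NH2; HDAC11 10 nM, FAM-RHKK(tri-fluor-Ac)-NH2), 2 μM substrate, HEPES pH 7.5, 25°C, 12-point 3× dilutions. Product/substrate separated by microfluidic mobility shift after SDS quench; IC50 from 4-parameter fit, reported as +/++/+++ bins.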

[2] = molecular target: T2, Full length human recombinant HDAC6 (Homo sapiens, UniProt Q9UBN7); test: In vitro histone deacetylase assay, enzymatic HDAC6 (electrophoretic mobility shift assay); assay type: biochemical; settings: 1 nM HDAC6; 2 μM peptide substrate FAM-RHKK(Ac)—NH2; 25° C.; 12 concentrations; read-out: HDAC6 Activity Range (IC50)
T2 construct: Full length human recombinant HDAC6 and HDAC11 proteins were expressed in baculoviral system
T2 sequence (Q9UBN7 1-1215): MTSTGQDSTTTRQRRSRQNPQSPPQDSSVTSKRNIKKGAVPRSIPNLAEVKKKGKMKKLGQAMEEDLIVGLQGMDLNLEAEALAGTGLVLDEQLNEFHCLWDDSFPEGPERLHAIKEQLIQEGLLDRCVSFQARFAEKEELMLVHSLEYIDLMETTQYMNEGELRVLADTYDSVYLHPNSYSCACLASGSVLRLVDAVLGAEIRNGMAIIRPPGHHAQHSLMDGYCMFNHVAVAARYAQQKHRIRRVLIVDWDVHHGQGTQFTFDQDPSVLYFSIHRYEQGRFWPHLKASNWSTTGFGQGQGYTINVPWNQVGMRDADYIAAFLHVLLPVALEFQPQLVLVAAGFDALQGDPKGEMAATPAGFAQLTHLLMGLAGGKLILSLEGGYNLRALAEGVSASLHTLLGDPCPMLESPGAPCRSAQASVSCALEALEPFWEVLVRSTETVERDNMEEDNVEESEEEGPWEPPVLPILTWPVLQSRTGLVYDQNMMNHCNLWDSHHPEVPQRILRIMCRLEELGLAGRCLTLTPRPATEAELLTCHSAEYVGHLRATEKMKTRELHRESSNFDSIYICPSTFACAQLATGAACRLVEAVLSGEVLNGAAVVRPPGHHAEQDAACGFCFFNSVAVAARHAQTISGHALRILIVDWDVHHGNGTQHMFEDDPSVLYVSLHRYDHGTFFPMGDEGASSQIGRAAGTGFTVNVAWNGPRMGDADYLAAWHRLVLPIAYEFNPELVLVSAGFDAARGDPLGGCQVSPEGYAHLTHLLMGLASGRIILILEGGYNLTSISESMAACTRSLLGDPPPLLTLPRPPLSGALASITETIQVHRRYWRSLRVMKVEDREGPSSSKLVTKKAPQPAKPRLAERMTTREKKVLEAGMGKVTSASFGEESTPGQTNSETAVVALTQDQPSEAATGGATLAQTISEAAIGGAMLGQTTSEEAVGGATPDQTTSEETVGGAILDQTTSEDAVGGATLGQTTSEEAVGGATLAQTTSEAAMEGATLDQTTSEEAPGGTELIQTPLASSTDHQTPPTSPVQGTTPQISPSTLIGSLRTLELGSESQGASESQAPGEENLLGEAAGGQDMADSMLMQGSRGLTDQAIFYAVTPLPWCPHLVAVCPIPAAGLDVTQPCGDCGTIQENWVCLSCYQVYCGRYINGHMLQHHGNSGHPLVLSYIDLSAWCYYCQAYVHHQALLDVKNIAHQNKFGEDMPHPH
Method in brief: as §1

Row | SMILES | IC50 [1] [µM] | IC50 [2] [µM]
1 | O=C(NO)c1ccc2c(c1)C[C@]1(CC2)CCN(Cc2cccc(Cl)c2)C1=O [Compound I-101, (R)-1′-(3-chlorobenzyl)-N-hydroxy-2′-oxo-3,4-dihydro-1H-spiro[naphthalene-2,3′-pyrrolidine]-7-carboxamide] | ≤ 0.1 | ≤ 0.1
2 | COc1ccc(CN2CC[C@]3(CCc4ccc(C(=O)NO)cc4C3)C2=O)cc1 [Compound I-102, (R)—N-hydroxy-1′-(4-methoxybenzyl)-2′-oxo-3,4-dihydro-1H-spiro[naphthalene-2,3′-pyrrolidine]-7-carboxamide] | ≤ 0.1 | ≤ 0.1
3 | O=C(NO)c1ccc2c(c1)C[C@]1(CC2)CCN(Cc2ccccc2F)C1=O [Compound I-103, (R)-1′-(2-fluorobenzyl)-N-hydroxy-2′-oxo-3,4-dihydro-1H-spiro[naphthalene-2,3′-pyrrolidine]-7-carboxamide] | ≤ 0.1 | ≤ 0.1
4 | O=C(NO)c1ccc2c(c1)C[C@]1(CC2)CCN(Cc2ccc3ccccc3c2)C1=O [Compound I-104, (R)—N-hydroxy-1′-(naphthalen-2-ylmethyl)-2′-oxo-3,4-dihydro-1H-spiro[naphthalene-2,3′-pyrrolidine]-7-carboxamide] | ≤ 0.1 | ≤ 0.1
5 | O=C(NO)c1ccc2c(c1)C[C@]1(CC2)CCN(Cc2ccccc2OC(F)F)C1=O [Compound I-105, (R)-1′-(2-(difluoromethoxy)benzyl)-N-hydroxy-2′-oxo-3,4-dihydro-1H-spiro[naphthalene-2,3′-pyrrolidine]-7-carboxamide] | ≤ 0.1 | ≤ 0.1
6 | O=C(NO)c1ccc2c(c1)C[C@]1(CC2)CCN(c2ccc(Oc3ccccc3)cc2)C1=O [Compound I-106, (R)—N-hydroxy-2′-oxo-1′-(4-phenoxyphenyl)-3,4-dihydro-1H-spiro[naphthalene-2,3′-pyrrolidine]-7-carboxamide] | ≤ 0.1 | ≤ 0.1
7 | O=C(NO)c1ccc2c(c1)C[C@]1(CC2)CCN(c2cnc3ccccc3c2)C1=O [Compound I-107, (R)—N-hydroxy-2′-oxo-1′-(quinolin-3-yl)-3,4-dihydro-1H-spiro[naphthalene-2, 3′-pyrrolidine]-7-carboxamide] | ≤ 0.1 | ≤ 0.1
8 | O=C(NO)c1ccc2c(c1)C[C@]1(CC2)CCN(c2cccc3c2OCC3)C1=O [Compound I-108, (R)-1′-(2,3-dihydrobenzofuran-7-yl)-N-hydroxy-2′-oxo-3,4-dihydro-1H-spiro[naphthalene-2,3′-pyrrolidine]-7-carboxamide] | > 0.5 | ≤ 0.1
9 | Cc1nn(C)cc1N1CC[C@]2(CCc3ccc(C(=O)NO)cc3C2)C1=O [Compound I-109, (R)-1′-(1,3-dimethyl-1H-pyrazol-4-yl)-N-hydroxy-2′-oxo-3,4-dihydro-1H-spiro[naphthalene-2,3′-pyrrolidine]-7-carboxamide] | > 0.5 | ≤ 0.1
10 | O=C(NO)c1ccc2c(c1)C[C@]1(CC2)CCN(c2ccc3nccn3c2)C1=O [Compound I-110, (R)—N-hydroxy-1′-(imidazo[1,2-a]pyridin-6-yl)-2′-oxo-3,4-dihydro-1H-spiro[naphthalene-2,3′-pyrrolidine]-7-carboxamide] | 0.1 to 0.5 | ≤ 0.1
11 | O=C(NO)c1ccc2c(c1)C[C@]1(CC2)CCN(c2cnc3ccccn23)C1=O [Compound I-111, (R)—N-hydroxy-1′-(imidazo[1,2-a]pyridin-3-yl)-2′-oxo-3,4-dihydro-1H-spiro[naphthalene-2,3′-pyrrolidine]-7-carboxamide] | 0.1 to 0.5 | ≤ 0.1
12 | O=C(NO)c1ccc2c(c1)C[C@@]1(CC2)CCN(c2ccc(Cl)c(Cl)c2)C1=O [Compound I-112, (S)-1′-(3,4-dichlorophenyl)-N-hydroxy-2′-oxo-3,4-dihydro-1H-spiro[naphthalene-2,3′-pyrrolidine]-7-carboxamide] | > 0.5 | ≤ 0.1
13 | Cc1ccc(N2CC[C@@]3(CCc4ccc(C(=O)NO)cc4C3)C2=O)c(C)c1 [Compound I-113, (S)-1′-(2,4-dimethylphenyl)-N-hydroxy-2′-oxo-3,4-dihydro-H-spiro[naphthalene-2,3′-pyrrolidine]-7-carboxamide] | > 0.5 | ≤ 0.1
14 | COc1ccccc1N1CC[C@@]2(CCc3ccc(C(=O)NO)cc3C2)C1=O [Compound I-114, (S)—N-hydroxy-1′-(2-methoxyphenyl)-2′-oxo-3,4-dihydro-1H-spiro[naphthalene-2,3′-pyrrolidine]-7-carboxamide] | > 0.5 | ≤ 0.1
15 | O=C(NO)c1ccc2c(c1)C[C@@]1(CC2)CCN(c2ccc3c(c2)OCO3)C1=O [Compound I-115, (S)-1′-(benzo[d][1,3]dioxol-5-yl)-N-hydroxy-2′-oxo-3,4-dihydro-1H-spiro[naphthalene-2,3′-pyrrolidine]-7-carboxamide] | > 0.5 | ≤ 0.1
16 | O=C(NO)c1ccc2c(c1)C[C@@]1(CC2)CCN(c2ccc(Oc3ccccc3)cc2)C1=O [Compound I-116, (S)—N-hydroxy-2′-oxo-1′-(4-phenoxyphenyl)-3,4-dihydro-1H-spiro[naphthalene-2,3′-pyrrolidine]-7-carboxamide] | > 0.5 | ≤ 0.1
17 | O=C(NO)c1ccc2c(c1)C[C@]1(CC2)CCN(c2cccc(OCCN3CCOCC3)c2)C1=O [Compound I-117, (R)—N-hydroxy-1′-(3-(2-morpholinoethoxy)phenyl)-2′-oxo-3,4-dihydro-1H-spiro[naphthalene-2,3′-pyrrolidine]-7-carboxamide] | > 0.5 | ≤ 0.1
18 | O=C(NO)c1ccc2c(c1)C[C@@]1(CC2)CCN(c2cnc3ccccc3c2)C1=O [Compound I-118, (S)—N-hydroxy-2′-oxo-1′-(quinolin-3-yl)-3,4-dihydro-1H-spiro[naphthalene-2,3′-pyrrolidine]-7-carboxamide] | > 0.5 | ≤ 0.1
19 | CN(C)CCc1ccc(N2CC[C@@]3(CCc4ccc(C(=O)NO)cc4C3)C2=O)cc1 [Compound I-119, (S)-1′-(4-(2-(dimethylamino)ethyl)phenyl)-N-hydroxy-2′-oxo-3,4-dihydro-1H-spiro[naphthalene-2,3′-pyrrolidine]-7-carboxamide] | > 0.5 | ≤ 0.1
20 | CN1CC[C@]2(CCc3ccc(C(=O)NO)cc3C2)C1=O [Compound I-120, (R)—N-hydroxy-1′-methyl-2′-oxo-3,4-dihydro-1H-spiro[naphthalene-2,3′-pyrrolidine]-7-carboxamide] | > 0.5 | ≤ 0.1
21 | CN1CC[C@@]2(CCc3ccc(C(=O)NO)cc3C2)C1=O [Compound I-121, (S)—N-hydroxy-1′-methyl-2′-oxo-3,4-dihydro-1H-spiro[naphthalene-2,3′-pyrrolidine]-7-carboxamide] | > 0.5 | ≤ 0.1
22 | Cc1ccc(CN2CC[C@@]3(CCc4ccc(C(=O)NO)cc4C3)C2=O)cc1 [Compound I-122, (S)—N-hydroxy-1′-(4-methylbenzyl)-2′-oxo-3,4-dihydro-1H-spiro[naphthalene-2,3′-pyrrolidine]-7-carboxamide] | ≤ 0.1 | ≤ 0.1
